Laboratory results as given in PMC6978363, “Chaperone mediated detection of small molecule target binding in cells” (Nature Communications, 2020).

Target: T1, c-RAF (Homo sapiens, UniProt P04049)
T1 construct: gene RAF1
Assay: c-RAF protein level change by immunofluorescence in A549 cells (with and without 17-AAG)
Format: cell-based

T1 sequence (P04049 whole entry): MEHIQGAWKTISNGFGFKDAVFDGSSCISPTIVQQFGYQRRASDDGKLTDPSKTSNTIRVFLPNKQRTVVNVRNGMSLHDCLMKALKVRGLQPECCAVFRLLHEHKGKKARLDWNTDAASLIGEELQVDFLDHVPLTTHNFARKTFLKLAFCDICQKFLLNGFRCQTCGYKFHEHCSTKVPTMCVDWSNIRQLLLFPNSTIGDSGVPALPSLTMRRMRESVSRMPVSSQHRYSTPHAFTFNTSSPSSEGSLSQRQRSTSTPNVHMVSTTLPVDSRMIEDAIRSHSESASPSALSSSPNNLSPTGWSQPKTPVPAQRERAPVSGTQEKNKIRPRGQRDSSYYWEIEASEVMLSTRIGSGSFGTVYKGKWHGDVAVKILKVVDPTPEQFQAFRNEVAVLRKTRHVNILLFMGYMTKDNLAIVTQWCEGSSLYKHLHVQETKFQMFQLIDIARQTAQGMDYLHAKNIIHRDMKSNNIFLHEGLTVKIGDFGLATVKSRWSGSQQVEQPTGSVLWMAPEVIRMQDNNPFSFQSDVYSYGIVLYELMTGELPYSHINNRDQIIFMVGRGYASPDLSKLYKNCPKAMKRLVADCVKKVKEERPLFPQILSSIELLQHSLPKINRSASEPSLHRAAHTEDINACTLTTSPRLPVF

Cc1ccc(NC(=O)c2ccnc(C(F)(F)F)c2)cc1-c1cc(N2CCOCC2)nc(N2CC(O)C2)c1 [Novartis pan-RAF inhibitor]
c-RAF protein level change by immunofluorescence in A549 cells (with and without): The interactions between c-RAF and these inhibitors are examples of a small molecule causing a direct effect on protein abundance
